From PubChem BioAssay (NCI)
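Five compound concentrations were applied to cells in 96-well plates for 48 hours; endpoints were derived by simple linear interpolation of the resulting dose-response curve. GI50 marks 50% less growth. TGI is the concentration that stops growth completely.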

Columns and labels:
Experiment in all cases: growth of human tumour cells (NCI), 48 h
SF-268 CNS = tested on: SF-268 CNS
SF-295 CNS = tested on: SF-295 CNS
SW-620 colon = tested on: SW-620 colon
BT-549 breast = tested on: BT-549 breast
MDA-MB-231 breast = tested on: MDA-MB-231 breast
UACC-62 melanoma = tested on: UACC-62 melanoma
EKVX NSCLC = tested on: EKVX NSCLC
OVCAR-8 ovarian = tested on: OVCAR-8 ovarian
A549 NSCLC = tested on: A549 NSCLC
OVCAR-5 ovarian = tested on: OVCAR-5 ovarian
HOP-62 NSCLC = tested on: HOP-62 NSCLC
NCI-H460 lung = tested on: NCI-H460 lung
OVCAR-4 ovarian = tested on: OVCAR-4 ovarian
HT29 colon = tested on: HT29 colon
SK-MEL-28 melanoma = tested on: SK-MEL-28 melanoma
PC-3 prostate = tested on: PC-3 prostate
NCI/ADR-RES ovarian = tested on: NCI/ADR-RES ovarian
T-47D breast = tested on: T-47D breast
NCI-H23 lung = tested on: NCI-H23 lung
OVCAR-3 ovarian = tested on: OVCAR-3 ovarian
UACC-257 melanoma = tested on: UACC-257 melanoma
SR leukemia = tested on: SR leukemia
TK-10 renal = tested on: TK-10 renal
SNB-19 CNS = tested on: SNB-19 CNS
LOX IMVI melanoma = tested on: LOX IMVI melanoma
HOP-92 NSCLC = tested on: HOP-92 NSCLC
CCRF-CEM leukemia = tested on: CCRF-CEM leukemia
UO-31 renal = tested on: UO-31 renal
DU-145 prostate = tested on: DU-145 prostate
M14 melanoma = tested on: M14 melanoma
MDA-MB-435 = tested on: MDA-MB-435
SF-539 CNS = tested on: SF-539 CNS
HL-60(TB) leukemia = tested on: HL-60(TB) leukemia
IGROV1 ovarian = tested on: IGROV1 ovarian
SN12C renal = tested on: SN12C renal
SK-OV-3 ovarian = tested on: SK-OV-3 ovarian
K-562 leukemia = tested on: K-562 leukemia
MCF7 breast = tested on: MCF7 breast
KM12 colon = tested on: KM12 colon
SNB-75 CNS = tested on: SNB-75 CNS
SK-MEL-5 melanoma = tested on: SK-MEL-5 melanoma
HCT-116 colon = tested on: HCT-116 colon
HCT-15 colon = tested on: HCT-15 colon
MOLT-4 leukemia = tested on: MOLT-4 leukemia
NCI-H522 lung = tested on: NCI-H522 lung
U251 CNS = tested on: U251 CNS
786-0 renal = tested on: 786-0 renal
COLO 205 colon = tested on: COLO 205 colon
HCC-2998 colon = tested on: HCC-2998 colon
NCI-H226 lung = tested on: NCI-H226 lung
SK-MEL-2 melanoma = tested on: SK-MEL-2 melanoma
MALME-3M melanoma = tested on: MALME-3M melanoma
RPMI-8226 leukemia = tested on: RPMI-8226 leukemia
ACHN renal = tested on: ACHN renal
A498 renal = tested on: A498 renal
RXF 393 renal = tested on: RXF 393 renal

With c1cc2sc1CSCCSCCSC2 the TGI (SF-268 CNS) was > 100000 nM, the TGI (SF-295 CNS) was > 100000 nM and the TGI (SW-620 colon) was > 100000 nM. For the same compound, the TGI (BT-549 breast) was > 100000 nM, the TGI (MDA-MB-231 breast) was > 100000 nM and the TGI (UACC-62 melanoma) was > 100000 nM. For the same compound, the TGI (EKVX NSCLC) was > 100000 nM, the TGI (OVCAR-8 ovarian) was > 100000 nM and the TGI (A549 NSCLC) was > 100000 nM. The TGI (OVCAR-5 ovarian) was > 100000 nM, the TGI (HOP-62 NSCLC) was > 100000 nM and the TGI (NCI-H460 lung) was > 100000 nM. The TGI (OVCAR-4 ovarian) was > 100000 nM, the TGI (HT29 colon) was > 100000 nM and the TGI (SK-MEL-28 melanoma) was > 100000 nM. For the same compound, the TGI (PC-3 prostate) was > 100000 nM, the TGI (NCI/ADR-RES ovarian) was > 100000 nM and the TGI (T-47D breast) was > 100000 nM. For the same compound, the TGI (NCI-H23 lung) was > 100000 nM, the TGI (OVCAR-3 ovarian) was > 100000 nM and the TGI (UACC-257 melanoma) was > 100000 nM. For the same compound, the TGI (SR leukemia) was > 100000 nM, the TGI (TK-10 renal) was > 100000 nM and the TGI (SNB-19 CNS) was > 100000 nM. For the same compound, the TGI (LOX IMVI melanoma) was > 100000 nM, the TGI (HOP-92 NSCLC) was > 100000 nM and the TGI (CCRF-CEM leukemia) was > 100000 nM. The TGI (UO-31 renal) was > 100000 nM, the TGI (DU-145 prostate) was > 100000 nM and the TGI (M14 melanoma) was > 100000 nM. The TGI (MDA-MB-435) was > 100000 nM, the TGI (SF-539 CNS) was > 100000 nM and the TGI (HL-60(TB) leukemia) was > 100000 nM. For the same compound, the TGI (IGROV1 ovarian) was > 100000 nM, the TGI (SN12C renal) was > 100000 nM and the TGI (SK-OV-3 ovarian) was > 100000 nM. The TGI (K-562 leukemia) was > 100000 nM, the TGI (MCF7 breast) was > 100000 nM and the TGI (KM12 colon) was > 100000 nM. For the same compound, the TGI (SNB-75 CNS) was > 100000 nM, the TGI (SK-MEL-5 melanoma) was > 100000 nM and the TGI (HCT-116 colon) was > 100000 nM. The TGI (HCT-15 colon) was > 100000 nM, the TGI (MOLT-4 leukemia) was > 100000 nM and the TGI (NCI-H522 lung) was > 100000 nM. The TGI (U251 CNS) was > 100000 nM, the TGI (786-0 renal) was > 100000 nM and the TGI (COLO 205 colon) was > 100000 nM. The TGI (HCC-2998 colon) was > 100000 nM.
Work on O=[N+]([O-])c1ccc2scc3c4ccccc4nc-3c2c1 yielded a GI50 (SF-268 CNS) of 1480 nM, a TGI (SF-268 CNS) of 2860 nM and a GI50 (SF-295 CNS) of 1780 nM. For the same compound, the TGI (SF-295 CNS) was 3870 nM, the GI50 (SW-620 colon) was 462 nM and the TGI (SW-620 colon) was 1700 nM. For the same compound, the GI50 (BT-549 breast) was 1730 nM, the TGI (BT-549 breast) was 3180 nM and the GI50 (MDA-MB-231 breast) was 1650 nM. The TGI (MDA-MB-231 breast) was 3220 nM, the GI50 (UACC-62 melanoma) was 1720 nM and the TGI (UACC-62 melanoma) was 3340 nM. It also gave a GI50 (A549 NSCLC) of 1740 nM, a TGI (A549 NSCLC) of 3850 nM and a GI50 (OVCAR-5 ovarian) of 1910 nM. The TGI (OVCAR-5 ovarian) was 3750 nM, the GI50 (HOP-62 NSCLC) was 1780 nM and the TGI (HOP-62 NSCLC) was 3240 nM. For the same compound, the GI50 (OVCAR-4 ovarian) was 1670 nM, the TGI (OVCAR-4 ovarian) was 3220 nM and the GI50 (HT29 colon) was 1380 nM. For the same compound, the TGI (HT29 colon) was 3030 nM, the GI50 (NCI-H226 lung) was 2220 nM and the TGI (NCI-H226 lung) was 6080 nM. It also gave a GI50 (SK-MEL-2 melanoma) of 1660 nM, a TGI (SK-MEL-2 melanoma) of 3310 nM and a GI50 (SK-MEL-28 melanoma) of 1720 nM. The TGI (SK-MEL-28 melanoma) was 3140 nM, the GI50 (PC-3 prostate) was 1730 nM and the TGI (PC-3 prostate) was 3500 nM. For the same compound, the GI50 (T-47D breast) was 784 nM, the TGI (T-47D breast) was 3320 nM and the GI50 (NCI-H23 lung) was 1900 nM. For the same compound, the TGI (NCI-H23 lung) was 5050 nM, the GI50 (OVCAR-3 ovarian) was 415 nM and the TGI (OVCAR-3 ovarian) was 1630 nM. The GI50 (UACC-257 melanoma) was 1320 nM, the TGI (UACC-257 melanoma) was 2720 nM and the GI50 (TK-10 renal) was 1080 nM. For the same compound, the TGI (TK-10 renal) was 2320 nM, the GI50 (SNB-19 CNS) was 1960 nM and the TGI (SNB-19 CNS) was 4080 nM. For the same compound, the GI50 (LOX IMVI melanoma) was 1360 nM, the TGI (LOX IMVI melanoma) was > 100000 nM and the GI50 (HOP-92 NSCLC) was 1660 nM. It also gave a TGI (HOP-92 NSCLC) of 3280 nM, a GI50 (CCRF-CEM leukemia) of 611 nM and a TGI (CCRF-CEM leukemia) of 5160 nM. It also gave a GI50 (UO-31 renal) of 1160 nM, a TGI (UO-31 renal) of 2510 nM and a GI50 (DU-145 prostate) of 1460 nM. It also gave a TGI (DU-145 prostate) of 2770 nM, a GI50 (M14 melanoma) of 1850 nM and a TGI (M14 melanoma) of 3580 nM. The GI50 (MDA-MB-435) was 1540 nM, the TGI (MDA-MB-435) was 3940 nM and the GI50 (SF-539 CNS) was 1800 nM. For the same compound, the TGI (SF-539 CNS) was 3350 nM, the GI50 (HL-60(TB) leukemia) was 1170 nM and the TGI (HL-60(TB) leukemia) was 5260 nM. The GI50 (MALME-3M melanoma) was 1150 nM, the TGI (MALME-3M melanoma) was 2640 nM and the GI50 (SK-OV-3 ovarian) was 1810 nM. The TGI (SK-OV-3 ovarian) was 3230 nM, the GI50 (K-562 leukemia) was 402 nM and the TGI (K-562 leukemia) was > 100000 nM. It also gave a GI50 (MCF7 breast) of 1290 nM, a TGI (MCF7 breast) of 3610 nM and a GI50 (RPMI-8226 leukemia) of 2120 nM. It also gave a TGI (RPMI-8226 leukemia) of 6180 nM, a GI50 (KM12 colon) of 1590 nM and a TGI (KM12 colon) of 2960 nM. For the same compound, the GI50 (SNB-75 CNS) was 1370 nM, the TGI (SNB-75 CNS) was 2660 nM and the GI50 (SK-MEL-5 melanoma) was 1620 nM. For the same compound, the TGI (SK-MEL-5 melanoma) was 3030 nM, the GI50 (HCT-116 colon) was 1330 nM and the TGI (HCT-116 colon) was 2940 nM. For the same compound, the GI50 (NCI-H522 lung) was 342 nM, the TGI (NCI-H522 lung) was 1540 nM and the GI50 (U251 CNS) was 600 nM. It also gave a TGI (U251 CNS) of 2000 nM, a GI50 (786-0 renal) of 1840 nM and a TGI (786-0 renal) of 3290 nM. The GI50 (COLO 205 colon) was 1790 nM, the TGI (COLO 205 colon) was 3520 nM and the GI50 (ACHN renal) was 1500 nM. It also gave a TGI (ACHN renal) of 2950 nM, a GI50 (A498 renal) of 509 nM and a TGI (A498 renal) of 2070 nM. For the same compound, the GI50 (RXF 393 renal) was 1430 nM and the TGI (RXF 393 renal) was 2780 nM.
